{"source": "patent US8765733B2", "about": "“Amine substituted methanesulfonamide derivatives as vanilloid receptor ligands” (Gruenenthal GmbH, priority 2011, dated 2014)"}
{"target": "vanilloid receptor 1 (VR1/TRPV1 receptor) (Homo sapiens, UniProt Q8NER1)", "test": "FLIPR functional assay (Ca2+ influx, capsaicin) on the vanilloid receptor 1", "assay_type": "cell-based", "details": "capsaicin (Cap) stimulus, compound at 5 μM, read-out: inhibition (as a percentage) Cap, (human being)", "units": {"inhibition at 5 µM": "%"}}
{"compound": "CC(C(=O)NCc1ccc(C(F)(F)F)nc1N1CCCC1)c1cccc(CNS(C)(=O)=O)c1", "note": "(centres unmarked) [Example 2, 2-(3-(methylsulfonamidomethyl)phenyl)-N-((2-(pyrrolidin-1-yl)-6-(trifluoromethyl)pyridin-3-yl)methyl)propanamide]", "inhibition at 5 µM": 48}
{"compound": "CCNc1nc(C(F)(F)F)ccc1CNC(=O)C(C)c1ccc(CNS(C)(=O)=O)c(F)c1", "note": "(centres unmarked) [Example 8, N-((2-(ethylamino)-6-(trifluoromethyl)pyridin-3-yl)methyl)-2-(3-fluoro-4-(methylsulfonamidomethyl)phenyl)propanamide]", "inhibition at 5 µM": 71}
{"compound": "COC1CN(c2nc(C(F)(F)F)ccc2CNC(=O)C(C)c2ccc(CNS(C)(=O)=O)c(F)c2)C1", "note": "(centres unmarked) [Example 14, 2-(3-fluoro-4-(methylsulfonamidomethyl)phenyl)-N-((2-(3-methoxyazetidin-1-yl)-6-(trifluoromethyl)pyridin-3-yl)methyl)propanamide]", "inhibition at 5 µM": 46}
{"compound": "CC(C(=O)NCc1ccc(C(F)(F)F)nc1N1CCOCC1)c1ccc(CNS(C)(=O)=O)c(F)c1", "note": "(centres unmarked) [Example 35, 2-(3-fluoro-4-(methylsulfonamidomethyl)phenyl)-N-((2-morpholino-6-(trifluoromethyl)pyridin-3-yl)methyl)propanamide]", "inhibition at 5 µM": 53}
{"target": "vanilloid receptor 1 (VR1/TRPV1 receptor) (Homo sapiens, UniProt Q8NER1)", "test": "FLIPR functional assay (Ca2+ influx, capsaicin) on the vanilloid receptor 1", "assay_type": "cell-based", "details": "functional (f), capsaicin (Cap) stimulus, Ki from IC50 by Cheng-Prusoff, read-out: (f) Ki (human being) [nM] Cap", "units": {"Ki": "nM"}}
{"compound": "CS(=O)(=O)NCc1ccc(NC(=O)NCc2ccc(C(F)(F)F)nc2N2CCCC2)cc1", "note": "[Example 4, N-(4-(3-((2-(pyrrolidin-1-yl)-6-(trifluoromethyl)pyridin-3-yl)methyl)ureido)benzyl)methanesulfonamide]", "Ki": 26}
{"compound": "CC1CCN(c2nc(C(F)(F)F)ccc2CNC(=O)Nc2ccc(CNS(C)(=O)=O)cc2)CC1", "note": "[Example 5, N-(4-(3-((2-(4-methylpiperidin-1-yl)-6-(trifluoromethyl)pyridin-3-yl)methyl)ureido)benzyl)methanesulfonamide]", "Ki": 4}
{"compound": "CC1CCN(c2nc(C(F)(F)F)ccc2CNC(=O)C(C)c2ccc(CNS(C)(=O)=O)cc2)CC1", "note": "(centres unmarked) [Example 6, N-((2-(4-methylpiperidin-1-yl)-6-(trifluoromethyl)pyridin-3-yl)methyl)-2-(4-(methylsulfonamidomethyl)phenyl)propanamide]", "Ki": 11}
{"compound": "CCCCNc1nc(C(F)(F)F)ccc1CNC(=O)C(C)c1ccc(CNS(C)(=O)=O)c(F)c1", "note": "(centres unmarked) [Example 9, N-((2-(butylamino)-6-(trifluoromethyl)pyridin-3-yl)methyl)-2-(3-fluoro-4-(methylsulfonamidomethyl)phenyl)propanamide]", "Ki": 95}
{"compound": "CC(C(=O)NCc1ccc(C(F)(F)F)nc1N1CCCC1)c1ccc(CNS(C)(=O)=O)c(F)c1", "note": "(centres unmarked) [Example 17, 2-(3-fluoro-4-(methylsulfonamidomethyl)phenyl)-N-((2-(pyrrolidin-1-yl)-6-(trifluoromethyl)pyridin-3-yl)methyl)propanamide]", "Ki": 23}
{"compound": "CC(C(=O)NCc1ccc(C(F)(F)F)nc1N1CCCCC1)c1ccc(CNS(C)(=O)=O)c(F)c1", "note": "(centres unmarked) [Example 21, 2-(3-fluoro-4-(methylsulfonamidomethyl)phenyl)-N-((2-(piperidin-1-yl)-6-(trifluoromethyl)pyridin-3-yl)methyl)propanamide]", "Ki": 5}
{"compound": "CC1CCN(c2nc(C(F)(F)F)ccc2CNC(=O)Nc2ccc(CNS(C)(=O)=O)c(F)c2)CC1", "note": "[Example 24, N-(2-fluoro-4-(3-((2-(4-methylpiperidin-1-yl)-6-(trifluoromethyl)pyridin-3-yl)methyl)ureido)benzyl)methanesulfonamide]", "Ki": 5}
{"compound": "CC1CCN(c2nc(C(F)(F)F)ccc2CNC(=O)Cc2ccc(CNS(C)(=O)=O)c(F)c2)CC1", "note": "[Example 25]", "Ki": 4}
{"compound": "CC1CCN(c2nc(C(C)(C)C)ccc2CNC(=O)C(C)c2ccc(CNS(C)(=O)=O)c(F)c2)CC1", "note": "(centres unmarked) [Example 28, N-((6-tert-butyl-2-(4-methylpiperidin-1-yl)pyridin-3-yl)methyl)-2-(3-fluoro-4-(methylsulfonamidomethyl)phenyl)propanamide]", "Ki": 5}
{"compound": "CC1CCN(c2cc(C(F)(F)F)ccc2CNC(=O)C(C)c2ccc(CNS(C)(=O)=O)c(F)c2)CC1", "note": "(centres unmarked) [Example 29, 2-(3-fluoro-4-(methylsulfonamidomethyl)phenyl)-N-(2-(4-methylpiperidin-1-yl)-4-(trifluoromethyl)benzyl)propanamide]", "Ki": 5}
{"compound": "CC1CCN(c2nc(C(F)(F)F)ccc2CNC(=O)C(C)c2ccc(CNS(C)(=O)=O)c(F)c2)CC1", "note": "(centres unmarked) [Example 30, 2-(3-fluoro-4-(methylsulfonamidomethyl)phenyl)-N-((2-(4-methylpiperidin-1-yl)-6-(trifluoromethyl)pyridin-3-yl)methyl)propanamide]", "Ki": 8}
{"compound": "CC(C(=O)NCc1ccc(C(F)(F)F)nc1N1CCC(c2ccccc2)(N(C)C)CC1)c1ccc(CNS(C)(=O)=O)c(F)c1", "note": "(centres unmarked) [Example 34, N-((2-(4-(dimethylamino)-4-phenylpiperidin-1-yl)-6-(trifluoromethyl)pyridin-3-yl)methyl)-2-(3-fluoro-4-(methylsulfonamidomethyl)phenyl)propanamide]", "Ki": 61}
{"compound": "CC(C(=O)NCc1ccc(C(F)(F)F)nc1N1CCCC1)c1ccc(CNS(C)(=O)=O)c(Cl)c1", "note": "(centres unmarked) [Example 45, 2-(3-chloro-4-(methylsulfonamidomethyl)phenyl)-N-((2-(pyrrolidin-1-yl)-6-(trifluoromethyl)pyridin-3-yl)methyl)propanamide]", "Ki": 80}
{"compound": "CC1CCN(c2nc(C(F)(F)F)ccc2CNC(=O)C(C)c2ccc(CNS(C)(=O)=O)c(Cl)c2)CC1", "note": "(centres unmarked) [Example 46, 2-(3-chloro-4-(methylsulfonamidomethyl)phenyl)-N-((2-(4-methylpiperidin-1-yl)-6-(trifluoromethyl)pyridin-3-yl)methyl)propanamide]", "Ki": 5}
{"compound": "CC1CCN(c2nc(C(F)(F)F)ccc2CNC(=O)Nc2ccc(CNS(C)(=O)=O)c(O)c2)CC1", "note": "[Example 47, N-(2-hydroxy-4-(3-((2-(4-methylpiperidin-1-yl)-6-(trifluoromethyl)pyridin-3-yl)methyl)ureido)benzyl)methanesulfonamide]", "Ki": 6}
{"compound": "COc1cc(C(C)C(=O)NCc2ccc(C(F)(F)F)nc2N2CCCC2)ccc1CNS(C)(=O)=O", "note": "(centres unmarked) [Example 48, 2-(3-methoxy-4-(methylsulfonamidomethyl)phenyl)-N-((2-(pyrrolidin-1-yl)-6-(trifluoromethyl)pyridin-3-yl)methyl)propanamide]", "Ki": 87}
{"compound": "COc1cc(NC(=O)NCc2ccc(C(F)(F)F)nc2N2CCC(C)CC2)ccc1CNS(C)(=O)=O", "note": "[Example 49, N-(2-methoxy-4-(3-((2-(4-methylpiperidin-1-yl)-6-(trifluoromethyl)pyridin-3-yl)methyl)ureido)benzyl)methanesulfonamide]", "Ki": 12}
{"compound": "Cc1cc(NC(=O)NCc2ccc(C(F)(F)F)nc2N2CCCC2)ccc1CNS(C)(=O)=O", "note": "[Example 52, N-(2-methyl-4-(3-((2-(pyrrolidin-1-yl)-6-(trifluoromethyl)pyridin-3-yl)methyl)ureido)benzyl)methanesulfonamide]", "Ki": 46}
{"compound": "Cc1cc(NC(=O)NCc2ccc(C(F)(F)F)nc2N2CCC(C)CC2)ccc1CNS(C)(=O)=O", "note": "[Example 53, N-(2-methyl-4-(3-((2-(4-methylpiperidin-1-yl)-6-(trifluoromethyl)pyridin-3-yl)methyl)ureido)benzyl)methanesulfonamide]", "Ki": 5}
{"compound": "CCS(=O)(=O)NCc1ccc(C(C)C(=O)NCc2ccc(C(F)(F)F)nc2N2CCCC2)cc1F", "note": "(centres unmarked) [Example 54, 2-(4-(ethylsulfonamidomethyl)-3-fluorophenyl)-N-((2-(pyrrolidin-1-yl)-6-(trifluoromethyl)pyridin-3-yl)methyl)propanamide]", "Ki": 76}
{"compound": "NS(=O)(=O)NCc1ccc(CCC(=O)NCc2ccc(C(F)(F)F)nc2N2CCCC2)cc1", "note": "[Example 56, 1-{[2-pyrrolidin-1-yl-6-(trifluoromethyl)pyridin-3-yl]methyl}-3-{4-[(sulfamoylamino)methyl]phenyl}propanamide]", "Ki": 38}
{"compound": "NS(=O)(=O)NCc1ccc(NC(=O)NCc2ccc(C(F)(F)F)nc2N2CCCC2)cc1", "note": "[Example 57, 1-{[2-pyrrolidin-1-yl-6-(trifluoromethyl)pyridin-3-yl]methyl}-3-{4-[(sulfamoylamino)methyl]phenyl}urea]", "Ki": 85}
{"compound": "CC1CCN(c2nc(C(F)(F)F)ccc2CNC(=O)C(C)c2ccc(CNS(N)(=O)=O)cc2)CC1", "note": "(centres unmarked) [Example 58, N-((2-(4-methylpiperidin-1-yl)-6-(trifluoromethyl)pyridin-3-yl)methyl)-2-(4-((sulfamoylamino)methyl)phenyl)propanamide]", "Ki": 2}
{"compound": "CC1CCN(c2nc(C(F)(F)F)ccc2CNC(=O)Nc2ccc(CNS(N)(=O)=O)cc2)CC1", "note": "[Example 59, 1-{[2-(4-methylpiperidin-1-yl)-6-(trifluoromethyl)pyridin-3-yl]methyl}-3-{4-[(sulfamoylamino)methyl]phenyl}urea]", "Ki": 1}
{"compound": "NS(=O)(=O)NCc1ccc(NC(=O)NCc2ccc(C(F)(F)F)nc2N2CCCC2)cc1F", "note": "[Example 60, 1-{3-fluoro-4-[(sulfamoylamino)methyl]phenyl}-3-{[2-pyrrolidin-1-yl-6-(trifluoromethyl)pyridin-3-yl]methyl}urea]", "Ki": 20}
{"compound": "CC1CCN(c2nc(C(F)(F)F)ccc2CNC(=O)Nc2ccc(CNS(N)(=O)=O)c(F)c2)CC1", "note": "[Example 61, 1-{3-fluoro-4-[(sulfamoylamino)methyl]phenyl}-3-{[2-(4-methylpiperidin-1-yl)/-6-(trifluoromethyl)pyridin-3-yl]methyl}urea]", "Ki": 1}
{"compound": "CC1CCN(c2nc(C(F)(F)F)ccc2CNC(=O)C(C)c2ccc(CN(C)S(C)(=O)=O)c(F)c2)CC1", "note": "(centres unmarked) [Example 63, 2-(3-fluoro-4-((N-methylmethylsulfonamido)methyl)phenyl)-N-((2-(4-methylpiperidin-1-yl)-6-(trifluoromethyl)pyridin-3-yl)methyl)propanamide]", "Ki": 55}
{"compound": "CC1CCN(c2nc(C(F)(F)F)ccc2CNC(=O)C(C)c2ccc(CNS(N)(=O)=O)c(F)c2)CC1", "note": "(centres unmarked) [Example 64, 2-(3-fluoro-4-((sulfamoylamino)methyl)phenyl)-N-((2-(4-methylpiperidin-1-yl)-6-(trifluoromethyl)pyridin-3-yl)methyl)propanamide]", "Ki": 4}
